Measurements from ChEMBL document CHEMBL4138234, “Aegeline inspired synthesis of novel amino alcohol and thiazolidinedione hybrids with antiadipogenic activity in 3T3-L1 cells” (Eur J Med Chem, 2018).
Calls of active or inactive are those of the source. The rule behind the calls is not given here.

Legend:
3T3-L1 [1] = experiment: Anti-adipogenic activity in mouse 3T3L1 preadipocytes assessed as reduction in lipid accumulation at 20 uM by Oil Red O absorbance assay; assay type: functional, cell-based
3T3-L1 [2] = experiment: Cytotoxicity against mouse 3T3L1 cells; assay type: cell-based
3T3-L1 [3] = experiment: Anti-adipogenic activity in mouse 3T3L1 cells assessed as reduction in lipid accumulation at 20 uM incubated for 2 to 4 days by Oil Red O absorbance method; assay type: functional, cell-based
3T3-L1 [4] = experiment: Anti-adipogenic activity in mouse 3T3L1 cells assessed as reduction in lipid accumulation at 20 uM incubated for 4 to 6 days by Oil Red O absorbance method; assay type: functional, cell-based
3T3-L1 [5] = experiment: Anti-adipogenic activity in mouse 3T3L1 cells assessed as reduction in lipid accumulation at 20 uM incubated for 4 to 6 days by Oil Red O staining based microscopic method; assay type: functional, cell-based
3T3-L1 [6] = experiment: Cell cycle arrest in mouse 3T3L1 cells assessed as accumulation at S phase at 10 uM after 24 hrs by propidium iodide-staining based flow cytometry (reference value: 22%); assay type: functional
Mus musculus [7] = species: Mus musculus; experiment: Inhibition of PPARgamma/CEBPalpha-mediated increase in FAS protein expression in mouse 3T3L1 preadipocytes at 20 uM up to 6 days by Western blot analysis; assay type: cell-based
3T3-L1 [8] = experiment: Anti-adipogenic activity in mouse 3T3L1 preadipocytes in differentiation media assessed as reduction in lipid accumulation by Oil Red O staining microscopic method; assay type: functional, cell-based
3T3-L1 [9] = experiment: Anti-adipogenic activity in mouse 3T3L1 cells assessed as reduction in lipid accumulation at 20 uM incubated for 2 to 6 days by Oil Red O absorbance method; assay type: functional, cell-based
3T3-L1 [10] = experiment: Anti-adipogenic activity in mouse 3T3L1 cells assessed as reduction in lipid accumulation at 20 uM incubated for 2 to 6 days by Oil Red O staining based microscopic method; assay type: functional, cell-based
[11] = biological target: T1, Peroxisome proliferator-activated receptor gamma (Mus musculus) (UniProt P37238); experiment: Inhibition of PPARgamma mRNA levels in mouse 3T3L1 preadipocytes at 20 uM after 6 days by RT-PCR analysis; assay type: cell-based
T1 sequence (whole entry): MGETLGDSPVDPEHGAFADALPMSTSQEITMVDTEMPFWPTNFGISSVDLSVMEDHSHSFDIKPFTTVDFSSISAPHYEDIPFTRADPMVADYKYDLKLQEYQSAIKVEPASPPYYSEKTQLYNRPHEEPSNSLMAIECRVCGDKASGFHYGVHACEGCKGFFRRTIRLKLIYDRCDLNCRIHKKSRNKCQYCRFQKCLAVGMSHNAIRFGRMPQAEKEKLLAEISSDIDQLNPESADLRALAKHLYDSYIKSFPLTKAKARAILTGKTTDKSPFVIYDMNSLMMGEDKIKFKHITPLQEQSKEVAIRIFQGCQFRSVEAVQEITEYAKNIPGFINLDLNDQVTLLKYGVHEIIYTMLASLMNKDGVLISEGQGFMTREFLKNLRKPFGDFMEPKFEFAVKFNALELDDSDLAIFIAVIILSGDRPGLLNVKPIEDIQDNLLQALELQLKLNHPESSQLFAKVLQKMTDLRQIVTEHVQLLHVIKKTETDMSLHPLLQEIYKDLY

3T3-L1 [12] = experiment: Anti-adipogenic activity in mouse 3T3L1 cells assessed as reduction in lipid accumulation at 20 uM incubated for 2 to 4 days by Oil Red O staining based microscopic method; assay type: functional, cell-based
3T3-L1 [13] = experiment: Anti-adipogenic activity in mouse 3T3L1 cells assessed as reduction in lipid accumulation at 20 uM incubated up to 6 days by Oil Red O staining based microscopic method; assay type: functional, cell-based
[14] = biological target: T1, Peroxisome proliferator-activated receptor gamma (Mus musculus); experiment: Inhibition of PPARgamma protein expression in mouse 3T3L1 preadipocytes at 20 uM up to 6 days by Western blot analysis; assay type: cell-based
Mus musculus [15] = species: Mus musculus; experiment: Inhibition of PPARgamma/CEBPalpha-mediated increase in aP2 mRNA levels in mouse 3T3L1 preadipocytes at 20 uM after 6 days by RT-PCR analysis; assay type: cell-based
[16] = biological target: CCAAT/enhancer-binding protein alpha (Mus musculus) (UniProt P53566); experiment: Inhibition of C/EBPalpha mRNA levels in mouse 3T3L1 preadipocytes at 20 uM after 6 days by RT-PCR analysis; assay type: cell-based
CCAAT/enhancer-binding protein alpha (Mus musculus), sequence (P53566 whole entry): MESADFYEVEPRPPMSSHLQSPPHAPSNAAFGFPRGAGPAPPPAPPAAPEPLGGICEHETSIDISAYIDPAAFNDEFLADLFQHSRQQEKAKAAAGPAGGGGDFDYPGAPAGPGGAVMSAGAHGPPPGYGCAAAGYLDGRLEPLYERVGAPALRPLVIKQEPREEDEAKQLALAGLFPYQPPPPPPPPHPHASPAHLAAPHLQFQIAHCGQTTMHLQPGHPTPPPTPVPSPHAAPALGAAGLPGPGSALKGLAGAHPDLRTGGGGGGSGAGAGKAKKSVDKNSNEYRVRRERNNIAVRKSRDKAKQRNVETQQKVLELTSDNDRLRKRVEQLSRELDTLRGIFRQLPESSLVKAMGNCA

Mus musculus [17] = species: Mus musculus; experiment: Inhibition of PPARgamma/CEBPalpha-mediated increase in FAS mRNA levels in mouse 3T3L1 preadipocytes at 20 uM after 6 days by RT-PCR analysis; assay type: cell-based
3T3-L1 [18] = experiment: Cell cycle arrest in mouse 3T3L1 cells assessed as accumulation at S phase at 20 uM after 24 hrs by propidium iodide-staining based flow cytometry (reference value: 22%); assay type: functional
3T3-L1 [19] = experiment: Anti-adipogenic activity in mouse 3T3L1 preadipocytes in differentiation medium assessed as reduction in lipid accumulation at 20 uM by Oil Red O absorbance assay relative to control; assay type: functional; set-up: scale not given: the % may be the effect or the level left
Mus musculus [20] = species: Mus musculus; experiment: Inhibition of PPARgamma/CEBPalpha-mediated increase in aP2 protein expression in mouse 3T3L1 preadipocytes at 20 uM up to 6 days by Western blot analysis; assay type: cell-based
3T3-L1 [21] = experiment: Anti-adipogenic activity in mouse 3T3L1 preadipocytes assessed as reduction in MDI induced-lipid accumulation at 10 uM after 20 mins by Oil Red O staining-based assay; assay type: functional, cell-based
3T3-L1 [22] = experiment: Anti-adipogenic activity in mouse 3T3L1 cells assessed as reduction in lipid accumulation at 20 uM incubated up to 6 days by Oil Red O absorbance assay; assay type: functional, cell-based
[23] = biological target: CCAAT/enhancer-binding protein alpha (Mus musculus) (UniProt P53566); experiment: Inhibition of C/EBPalpha protein expression in mouse 3T3L1 preadipocytes at 20 uM up to 6 days by Western blot analysis; assay type: cell-based
3T3-L1 [24] = experiment: Cell cycle arrest in mouse 3T3L1 cells assessed as accumulation at S phase at 10 to 20 uM after 16 hrs by propidium iodide-staining based flow cytometry; assay type: functional

## O=C1NC(=O)/C(=C/c2ccc(OCC(O)COC(=O)c3ccc(Cl)nc3)cc2)S1 (centres undefined)
3T3-L1 [1]
  Activity: inactive

## O=C1NC(=O)/C(=C/c2ccc(OCC(O)COC(=O)c3cccnc3)cc2)S1 (centres undefined)
3T3-L1 [1]
  Activity: inactive

## O=C1S/C(=C\c2ccc(OCC(O)CNCc3cccnc3)cc2)C(=O)N1Cc1ccccc1 (centres undefined)
3T3-L1 [1]
  Activity: inactive

## CC(NCC(O)COc1ccc(/C=C2\SC(=O)N(Cc3ccccc3Br)C2=O)cc1)c1ccccc1 (centres undefined)
3T3-L1 [2]
  Activity: Toxic

## O=C1S/C(=C\c2ccc(OCC(O)CNCc3ccccn3)cc2)C(=O)N1Cc1ccccc1Br (centres undefined)
3T3-L1 [1]
  Activity: Active

## O=C1S/C(=C\c2ccc(OCC(O)CNCc3cccnc3)cc2)C(=O)N1Cc1ccccc1Br (centres undefined)
3T3-L1 [1]
  Activity: inactive

## O=C(Cc1ccc(Cl)cc1)OCC(O)COc1ccc(/C=C2\SC(=O)NC2=O)cc1 (centres undefined)
3T3-L1 [1]
  Activity: inactive

## O=C1S/C(=C\c2ccc(OCC(O)CNCc3ccccn3)cc2)C(=O)N1Cc1ccc(F)cc1 (centres undefined)
3T3-L1 [2]
  Activity: Toxic

## COc1ccc(C(=O)OCC(O)COc2ccc(/C=C3\SC(=O)NC3=O)cc2)c(OC)c1 (centres undefined)
3T3-L1 [1]
  Activity: inactive

## O=C1S/C(=C\c2ccc(OCC(O)CNCc3cccnc3)cc2)C(=O)N1Cc1ccc(F)cc1 (centres undefined)
3T3-L1 [1]
  Activity: inactive

## CC(NCC(O)COc1ccc(/C=C2\SC(=O)N(Cc3ccccc3)C2=O)cc1)c1ccccc1 (centres undefined)
3T3-L1 [2]
  Activity: Toxic

## O=C1S/C(=C\c2ccc(OCC(O)CNCc3ccccn3)cc2)C(=O)N1Cc1ccccc1 (centres undefined)
3T3-L1 [3]
  Activity: Active
3T3-L1 [4]
  Activity: Active
3T3-L1 [5]
  Activity: Active
3T3-L1 [6]
  Activity: 37%
Mus musculus [7]
  inhibition: Active
3T3-L1 [8]
  Activity: Dose-dependent effect
3T3-L1 [9]
  Activity: Active
3T3-L1 [10]
  Activity: Active
[11]
  inhibition: Active
3T3-L1 [12]
  Activity: Active
3T3-L1 [13]
  Activity: Active
[14]
  inhibition: Active
Mus musculus [15]
  inhibition: Active
[16]
  inhibition: Active
Mus musculus [17]
  inhibition: Active
3T3-L1 [18]
  Activity: 36%
3T3-L1 [19]
  Activity: >50%
Mus musculus [20]
  inhibition: Active
3T3-L1 [1]
  Activity: Active
3T3-L1 [21]
  Activity: Active
3T3-L1 [22]
  Activity: Active
[23]
  inhibition: Active
3T3-L1 [24]
  Activity: inactive
